Laboratory results from PMC7048316, “Yeast filamentation signaling is connected to a specific substrate translocation mechanism of the Mep2 transceptor” (PLoS Genetics, 2020).

How the values were obtained:
Mep2 (ScMep2) = biological target: T1, Mep2 (ScMep2) (Saccharomyces cerevisiae, UniProt P41948); assay type: cell-based; conditions: 3 mM ammonium; pH 5.5; labelled compound
T1 construct: untagged full-length Mep2 in pOO2, cRNA-injected Xenopus oocytes; family adopts a trimeric fold

[1] = substrate: N; assay: cells, lysate or membranes; conditions: -100 mV (voltage-dependent), pH 5.5, NH4Cl

T1 sequence (P41948 whole entry): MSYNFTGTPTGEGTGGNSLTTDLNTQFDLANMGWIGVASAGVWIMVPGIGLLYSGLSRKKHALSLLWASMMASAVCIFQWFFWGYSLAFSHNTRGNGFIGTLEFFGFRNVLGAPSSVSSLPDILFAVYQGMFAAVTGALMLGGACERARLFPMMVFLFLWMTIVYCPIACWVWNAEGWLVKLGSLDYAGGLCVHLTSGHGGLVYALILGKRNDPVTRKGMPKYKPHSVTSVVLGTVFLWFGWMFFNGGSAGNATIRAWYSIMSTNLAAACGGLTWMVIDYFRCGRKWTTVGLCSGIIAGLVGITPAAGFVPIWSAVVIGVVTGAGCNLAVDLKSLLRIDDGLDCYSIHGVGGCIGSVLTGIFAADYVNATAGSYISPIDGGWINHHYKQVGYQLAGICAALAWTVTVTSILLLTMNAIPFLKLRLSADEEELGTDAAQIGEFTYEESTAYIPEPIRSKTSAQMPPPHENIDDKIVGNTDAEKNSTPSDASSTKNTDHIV

Molecule | 15N-ammonium uptake into Xenopus oocytes, isotope ratio mass spectrometry (Mep2 (ScMep2)) | Km [1]
N [ammonium] | Mep2 and its Mep2^S457D variant were functional in oocytes, enabling substrate transport | 
Mep1 (ScMep1) (Saccharomyces cerevisiae S288C) (protein) MESRTTGPLTTETYDGPTVAFMILGAALVFFMVPGLGFLYSGLARRKSALALIWVVLMATLVGILQWYFWGYSLAFSKSAPNNKFIGNLDSFGFRNVYGKKFDEDAYPELAYATFQMMFSCVNLSIIAGATAERGRLLPHMVFLFILATIGYCPVTYWIWSPGGWAYQWGVLDWAGGGNIEILSAVSGFVYSWFLGKRNEKLLINFRPHNVSLVTLGTSILWFGWLLFNSASSLSPNLRSVYAFMNTCLSAITGGMTWCLLDYRSEKKWSTVGLCSGIISGLVAATPSSGCITLYGSLIQGIVAGVVCNFATKLKYYAKVDDAMDILAEHGVAGVIGLIFNALFGADWVIGMDGTTEHEGGWVTHNYKQMYKQIAYIAASIGYTAAVTAIICFVLGYIPGMRLRISEEAEEAGMDEDQIGEFAYDYVEVRRDYYLWGVDEDSQRSDVNHRVNNAHLAAERSSSGTNSSSDGNGEMIQSEKILPIHQEDPANR |  | 258 µM
